The molecules below were run against JAK1 (Homo sapiens (Human), UniProt P23458) (assay: Biochemical JAK1 kinase assay (LanthaScreen)). Details: not given.
How it was run: (§1)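 GST-JAK + GFP-STAT1 peptide, HEPES pH 7.5/MgCl2/EGTA/Brij-35 buffer; cpd preincubation 1 h RT; ATP start, 1 h RT; stop with 10 mM EDTA + 2 nM Tb-anti-pSTAT1; TR-FRET 520/495. 4-parameter IC50 → pKi (Cheng-Prusoff).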

Sequence of JAK1 (P23458 whole entry): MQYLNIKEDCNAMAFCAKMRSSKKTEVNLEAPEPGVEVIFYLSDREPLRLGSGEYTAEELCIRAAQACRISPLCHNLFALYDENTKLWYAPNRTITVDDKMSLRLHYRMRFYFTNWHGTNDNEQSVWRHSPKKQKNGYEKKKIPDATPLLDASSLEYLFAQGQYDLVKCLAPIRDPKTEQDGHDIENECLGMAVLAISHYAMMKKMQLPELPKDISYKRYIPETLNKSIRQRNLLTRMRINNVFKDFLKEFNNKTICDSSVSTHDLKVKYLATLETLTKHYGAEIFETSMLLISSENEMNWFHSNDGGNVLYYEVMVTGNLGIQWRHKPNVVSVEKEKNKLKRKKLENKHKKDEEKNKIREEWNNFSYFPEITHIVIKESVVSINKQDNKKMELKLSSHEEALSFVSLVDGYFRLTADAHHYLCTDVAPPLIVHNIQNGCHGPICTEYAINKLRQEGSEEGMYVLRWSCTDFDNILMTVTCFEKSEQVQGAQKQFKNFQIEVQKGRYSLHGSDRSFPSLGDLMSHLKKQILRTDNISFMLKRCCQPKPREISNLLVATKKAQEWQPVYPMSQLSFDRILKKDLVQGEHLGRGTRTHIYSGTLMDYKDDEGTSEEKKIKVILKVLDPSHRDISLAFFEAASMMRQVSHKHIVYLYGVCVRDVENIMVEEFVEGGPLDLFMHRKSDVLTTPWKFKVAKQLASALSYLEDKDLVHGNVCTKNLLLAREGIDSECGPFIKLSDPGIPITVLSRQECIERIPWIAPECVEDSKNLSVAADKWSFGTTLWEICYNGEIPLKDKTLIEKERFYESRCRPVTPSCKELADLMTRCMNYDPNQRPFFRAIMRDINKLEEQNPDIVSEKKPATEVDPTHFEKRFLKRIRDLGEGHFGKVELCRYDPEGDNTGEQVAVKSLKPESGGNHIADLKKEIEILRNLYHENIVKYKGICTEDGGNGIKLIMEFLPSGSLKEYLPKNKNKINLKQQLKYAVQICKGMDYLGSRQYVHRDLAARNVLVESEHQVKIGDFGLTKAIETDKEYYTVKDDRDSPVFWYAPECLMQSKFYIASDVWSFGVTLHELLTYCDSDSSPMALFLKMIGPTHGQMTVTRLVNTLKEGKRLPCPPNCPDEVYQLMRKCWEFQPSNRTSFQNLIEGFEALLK

Row | SMILES | JAK 1 (pKi)
1 | C=CC(=O)N1CC(CCn2c(=O)ccc3cnc(Nc4ccc(N5CCN(C)CC5)cc4F)nc32)C1 [Example 141] | E (E represents a pKi value of 7 or below (Ki of 100 nM or above))
2 | C=CC(=O)N1CC(CCn2c(=O)ccc3cnc(Nc4ccc(N5CCC(C)CC5)cc4)nc32)C1 [Example 142] | E (E represents a pKi value of 7 or below (Ki of 100 nM or above))
3 | C=CC(=O)N1CC(CCn2c(=O)ccc3cnc(Nc4ccc(N5CCCCC5)cc4)nc32)C1 [Example 143] | E (E represents a pKi value of 7 or below (Ki of 100 nM or above))
4 | C=CC(=O)N1CCN(CCn2c(=O)ccc3cnc(Nc4ccc(N5CCN(C(=O)OC)CC5)cc4)nc32)CC1 [Example 145] | E (E represents a pKi value of 7 or below (Ki of 100 nM or above))
5 | C=CC(=O)N1CC(CCn2c(=O)ccc3cnc(Nc4ccc(N5CCN(C(=O)CS(C)(=O)=O)CC5)cc4)nc32)C1 [Example 151] | E (E represents a pKi value of 7 or below (Ki of 100 nM or above))
6 | C=CC(=O)N1CC(CCn2c(=O)ccc3cnc(Nc4ccc(N5CCC(F)(F)CC5)cc4)nc32)C1 [Example 157] | E (E represents a pKi value of 7 or below (Ki of 100 nM or above))

Each molecule was assayed against JAK2 (Homo sapiens (Human), UniProt O60674) (assay: Biochemical JAK2 kinase assay (LanthaScreen)). Details: not given.
Sequence of JAK2 (O60674 whole entry): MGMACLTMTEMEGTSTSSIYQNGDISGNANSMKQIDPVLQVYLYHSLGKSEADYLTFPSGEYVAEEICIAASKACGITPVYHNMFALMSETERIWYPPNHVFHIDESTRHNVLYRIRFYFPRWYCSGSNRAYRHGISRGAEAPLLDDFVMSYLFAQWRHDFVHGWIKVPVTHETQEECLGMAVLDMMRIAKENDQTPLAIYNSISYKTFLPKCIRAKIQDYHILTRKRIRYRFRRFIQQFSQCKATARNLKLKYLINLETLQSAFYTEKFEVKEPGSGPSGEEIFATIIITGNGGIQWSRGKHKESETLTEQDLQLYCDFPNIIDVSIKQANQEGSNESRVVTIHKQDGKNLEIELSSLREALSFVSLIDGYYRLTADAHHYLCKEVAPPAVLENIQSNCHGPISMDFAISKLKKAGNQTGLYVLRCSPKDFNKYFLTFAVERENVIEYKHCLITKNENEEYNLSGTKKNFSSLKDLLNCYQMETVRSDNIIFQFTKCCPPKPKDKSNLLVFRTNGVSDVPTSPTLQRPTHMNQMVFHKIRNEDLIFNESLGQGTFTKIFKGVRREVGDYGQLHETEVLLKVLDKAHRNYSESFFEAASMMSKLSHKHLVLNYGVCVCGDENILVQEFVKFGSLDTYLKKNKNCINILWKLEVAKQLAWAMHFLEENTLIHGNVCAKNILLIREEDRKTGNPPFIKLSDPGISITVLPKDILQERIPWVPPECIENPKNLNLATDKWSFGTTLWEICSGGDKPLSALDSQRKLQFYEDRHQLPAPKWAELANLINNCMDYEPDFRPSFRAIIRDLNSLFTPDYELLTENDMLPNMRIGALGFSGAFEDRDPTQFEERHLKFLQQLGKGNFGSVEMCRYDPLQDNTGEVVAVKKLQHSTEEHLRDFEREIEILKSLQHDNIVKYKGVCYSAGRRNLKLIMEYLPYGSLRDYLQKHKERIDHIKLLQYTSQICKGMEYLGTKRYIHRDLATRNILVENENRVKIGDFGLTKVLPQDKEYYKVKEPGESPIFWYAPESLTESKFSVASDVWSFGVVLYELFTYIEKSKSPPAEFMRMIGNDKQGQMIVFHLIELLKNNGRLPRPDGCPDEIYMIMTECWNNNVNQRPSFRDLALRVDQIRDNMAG
How it was run: as §1

Row | SMILES | JAK 2 (pKi)
7 | C=CC(=O)N1CC(CCn2c(=O)ccc3cnc(Nc4ccc(N5CCN(C)CC5)cc4F)nc32)C1 [Example 141] | E (E represents a pKi value of 7 or below (Ki of 100 nM or above))
8 | C=CC(=O)N1CC(CCn2c(=O)ccc3cnc(Nc4ccc(N5CCC(C)CC5)cc4)nc32)C1 [Example 142] | E (E represents a pKi value of 7 or below (Ki of 100 nM or above))
9 | C=CC(=O)N1CC(CCn2c(=O)ccc3cnc(Nc4ccc(N5CCCCC5)cc4)nc32)C1 [Example 143] | E (E represents a pKi value of 7 or below (Ki of 100 nM or above))
10 | C=CC(=O)N1CCN(CCn2c(=O)ccc3cnc(Nc4ccc(N5CCN(C(=O)OC)CC5)cc4)nc32)CC1 [Example 145] | E (E represents a pKi value of 7 or below (Ki of 100 nM or above))
11 | C=CC(=O)N1CC(CCn2c(=O)ccc3cnc(Nc4ccc(N5CCN(C(=O)CS(C)(=O)=O)CC5)cc4)nc32)C1 [Example 151] | E (E represents a pKi value of 7 or below (Ki of 100 nM or above))
12 | C=CC(=O)N1CC(CCn2c(=O)ccc3cnc(Nc4ccc(N5CCC(F)(F)CC5)cc4)nc32)C1 [Example 157] | E (E represents a pKi value of 7 or below (Ki of 100 nM or above))

Each molecule was assayed against JAK3 (Homo sapiens (Human), UniProt P52333) (assay: Biochemical JAK3 kinase assay (LanthaScreen)). Details: not given.
Sequence of JAK3 (P52333 whole entry): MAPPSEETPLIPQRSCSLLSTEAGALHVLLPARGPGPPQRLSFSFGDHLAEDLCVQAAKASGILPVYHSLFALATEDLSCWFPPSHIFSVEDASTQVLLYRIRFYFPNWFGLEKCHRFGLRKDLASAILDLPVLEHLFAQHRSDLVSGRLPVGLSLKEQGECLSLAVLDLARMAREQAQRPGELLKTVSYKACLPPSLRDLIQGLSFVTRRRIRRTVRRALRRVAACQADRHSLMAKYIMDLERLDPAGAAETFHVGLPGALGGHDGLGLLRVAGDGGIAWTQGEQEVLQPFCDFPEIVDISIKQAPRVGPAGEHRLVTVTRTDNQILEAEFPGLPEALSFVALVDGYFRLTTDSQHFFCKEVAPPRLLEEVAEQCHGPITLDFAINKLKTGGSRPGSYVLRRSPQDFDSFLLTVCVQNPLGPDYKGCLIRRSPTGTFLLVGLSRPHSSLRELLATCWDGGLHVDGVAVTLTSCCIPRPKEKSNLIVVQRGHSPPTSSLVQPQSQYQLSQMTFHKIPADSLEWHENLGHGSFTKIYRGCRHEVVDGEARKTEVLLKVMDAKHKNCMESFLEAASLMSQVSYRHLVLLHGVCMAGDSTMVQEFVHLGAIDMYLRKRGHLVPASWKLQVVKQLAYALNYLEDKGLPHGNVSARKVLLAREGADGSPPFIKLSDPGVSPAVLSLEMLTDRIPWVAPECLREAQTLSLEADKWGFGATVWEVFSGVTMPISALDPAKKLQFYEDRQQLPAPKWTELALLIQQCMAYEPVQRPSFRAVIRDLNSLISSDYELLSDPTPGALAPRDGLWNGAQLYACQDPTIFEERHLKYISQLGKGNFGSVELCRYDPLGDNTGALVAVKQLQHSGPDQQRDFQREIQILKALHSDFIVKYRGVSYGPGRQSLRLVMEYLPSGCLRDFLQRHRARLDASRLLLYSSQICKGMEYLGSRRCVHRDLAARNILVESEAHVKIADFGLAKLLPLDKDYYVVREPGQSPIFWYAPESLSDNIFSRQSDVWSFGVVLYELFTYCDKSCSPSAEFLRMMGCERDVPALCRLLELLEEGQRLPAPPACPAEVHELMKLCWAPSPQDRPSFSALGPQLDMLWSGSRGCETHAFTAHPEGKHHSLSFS
How it was run: as §1

Row | SMILES | JAK 3 (pKi)
13 | C=CC(=O)N1CC(CCn2c(=O)ccc3cnc(Nc4ccc(N5CCN(C)CC5)cc4F)nc32)C1 [Example 141] | B (B represents pKi value between 9 and 10 (Ki between 1 nM and 0.1 nM))
14 | C=CC(=O)N1CC(CCn2c(=O)ccc3cnc(Nc4ccc(N5CCC(C)CC5)cc4)nc32)C1 [Example 142] | A (A represents a pKi value≥10 (Ki≤0.1 nM))
15 | C=CC(=O)N1CC(CCn2c(=O)ccc3cnc(Nc4ccc(N5CCCCC5)cc4)nc32)C1 [Example 143] | A (A represents a pKi value≥10 (Ki≤0.1 nM))
16 | C=CC(=O)N1CCN(CCn2c(=O)ccc3cnc(Nc4ccc(N5CCN(C(=O)OC)CC5)cc4)nc32)CC1 [Example 145] | B (B represents pKi value between 9 and 10 (Ki between 1 nM and 0.1 nM))
17 | C=CC(=O)N1CC(CCn2c(=O)ccc3cnc(Nc4ccc(N5CCN(C(=O)CS(C)(=O)=O)CC5)cc4)nc32)C1 [Example 151] | B (B represents pKi value between 9 and 10 (Ki between 1 nM and 0.1 nM))
18 | C=CC(=O)N1CC(CCn2c(=O)ccc3cnc(Nc4ccc(N5CCC(F)(F)CC5)cc4)nc32)C1 [Example 157] | A (A represents a pKi value≥10 (Ki≤0.1 nM))

Same assay, conditions: selectivity JAK3 over JAK1, difference of pKi

Row | SMILES | JAK3 (pKi)-JAK1 (pKi)
19 | C=CC(=O)N1CC(CCn2c(=O)ccc3cnc(Nc4ccc(N5CCN(C)CC5)cc4F)nc32)C1 [Example 141] | A (A represents a value of 3 or above)
20 | C=CC(=O)N1CC(CCn2c(=O)ccc3cnc(Nc4ccc(N5CCC(C)CC5)cc4)nc32)C1 [Example 142] | A (A represents a value of 3 or above)
21 | C=CC(=O)N1CC(CCn2c(=O)ccc3cnc(Nc4ccc(N5CCCCC5)cc4)nc32)C1 [Example 143] | A (A represents a value of 3 or above)
22 | C=CC(=O)N1CCN(CCn2c(=O)ccc3cnc(Nc4ccc(N5CCN(C(=O)OC)CC5)cc4)nc32)CC1 [Example 145] | A (A represents a value of 3 or above)
23 | C=CC(=O)N1CC(CCn2c(=O)ccc3cnc(Nc4ccc(N5CCN(C(=O)CS(C)(=O)=O)CC5)cc4)nc32)C1 [Example 151] | A (A represents a value of 3 or above)
24 | C=CC(=O)N1CC(CCn2c(=O)ccc3cnc(Nc4ccc(N5CCC(F)(F)CC5)cc4)nc32)C1 [Example 157] | A (A represents a value of 3 or above)

Each molecule was assayed against Tyk2 (Homo sapiens (Human), UniProt P29597) (assay: Biochemical Tyk2 kinase assay (LanthaScreen)). Details: not given.
Sequence of Tyk2 (P29597 whole entry): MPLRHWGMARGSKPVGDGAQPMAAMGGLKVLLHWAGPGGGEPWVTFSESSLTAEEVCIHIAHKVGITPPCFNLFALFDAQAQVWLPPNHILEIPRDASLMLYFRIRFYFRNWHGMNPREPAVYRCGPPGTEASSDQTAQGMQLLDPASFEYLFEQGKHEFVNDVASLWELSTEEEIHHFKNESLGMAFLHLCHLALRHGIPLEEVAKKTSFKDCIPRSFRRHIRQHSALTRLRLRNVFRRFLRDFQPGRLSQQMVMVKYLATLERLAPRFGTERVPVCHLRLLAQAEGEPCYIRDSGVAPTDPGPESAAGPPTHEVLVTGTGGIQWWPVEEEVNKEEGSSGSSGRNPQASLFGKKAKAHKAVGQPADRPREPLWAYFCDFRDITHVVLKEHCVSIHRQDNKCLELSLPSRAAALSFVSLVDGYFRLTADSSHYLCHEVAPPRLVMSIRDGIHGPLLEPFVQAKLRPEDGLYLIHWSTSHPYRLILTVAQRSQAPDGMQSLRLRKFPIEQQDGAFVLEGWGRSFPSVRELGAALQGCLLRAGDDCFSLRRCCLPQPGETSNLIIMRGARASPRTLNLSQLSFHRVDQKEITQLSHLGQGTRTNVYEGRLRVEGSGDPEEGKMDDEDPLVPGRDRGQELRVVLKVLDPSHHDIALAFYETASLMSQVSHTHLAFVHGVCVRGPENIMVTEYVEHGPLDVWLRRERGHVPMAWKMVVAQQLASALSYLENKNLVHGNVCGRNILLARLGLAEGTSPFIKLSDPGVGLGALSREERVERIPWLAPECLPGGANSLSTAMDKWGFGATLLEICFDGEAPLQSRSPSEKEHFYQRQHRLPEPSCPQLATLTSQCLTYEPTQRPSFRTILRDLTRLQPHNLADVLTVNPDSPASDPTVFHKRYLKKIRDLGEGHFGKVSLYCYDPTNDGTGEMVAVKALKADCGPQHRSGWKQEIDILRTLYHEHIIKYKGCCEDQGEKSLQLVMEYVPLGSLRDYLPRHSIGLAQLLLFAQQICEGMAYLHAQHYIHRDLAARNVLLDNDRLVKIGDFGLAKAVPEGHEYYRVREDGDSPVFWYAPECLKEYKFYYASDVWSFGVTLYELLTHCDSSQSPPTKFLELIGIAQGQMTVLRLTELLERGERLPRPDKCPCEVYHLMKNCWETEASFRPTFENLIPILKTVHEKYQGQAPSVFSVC
How it was run: as §1

Row | SMILES | Tyk 2 (pKi)
25 | C=CC(=O)N1CC(CCn2c(=O)ccc3cnc(Nc4ccc(N5CCN(C)CC5)cc4F)nc32)C1 [Example 141] | E (E represents a pKi value of 7 or below (Ki of 100 nM or above))
26 | C=CC(=O)N1CC(CCn2c(=O)ccc3cnc(Nc4ccc(N5CCC(C)CC5)cc4)nc32)C1 [Example 142] | E (E represents a pKi value of 7 or below (Ki of 100 nM or above))
27 | C=CC(=O)N1CC(CCn2c(=O)ccc3cnc(Nc4ccc(N5CCCCC5)cc4)nc32)C1 [Example 143] | E (E represents a pKi value of 7 or below (Ki of 100 nM or above))
28 | C=CC(=O)N1CCN(CCn2c(=O)ccc3cnc(Nc4ccc(N5CCN(C(=O)OC)CC5)cc4)nc32)CC1 [Example 145] | E (E represents a pKi value of 7 or below (Ki of 100 nM or above))
29 | C=CC(=O)N1CC(CCn2c(=O)ccc3cnc(Nc4ccc(N5CCN(C(=O)CS(C)(=O)=O)CC5)cc4)nc32)C1 [Example 151] | E (E represents a pKi value of 7 or below (Ki of 100 nM or above))
30 | C=CC(=O)N1CC(CCn2c(=O)ccc3cnc(Nc4ccc(N5CCC(F)(F)CC5)cc4)nc32)C1 [Example 157] | E (E represents a pKi value of 7 or below (Ki of 100 nM or above))

The molecules below were run on IL-2 stimulated STAT5 phosphorylation in Tall-1 human T cell line (JAK3) (assay: Cellular JAK3 potency assay: inhibition of IL-2 stimulated pSTAT5 in Tall-1 T cells). Details: IL-2 stimulated pSTAT5, Tall-1 T cells.
Assay type: cell-based
How it was run: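 Tall-1 cells, 45,000 per well, preincubated 1 hour with compound at 37 °C, then stimulated 30 minutes with IL-2 at 300 ng/ml final. pSTAT5 (Tyr694/699) in lysates quantified by AlphaLISA SureFire Ultra. pIC50 derived from inhibition curves, given as mean with SD.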

Row | SMILES | Tall-1 (pIC50)
31 | C=CC(=O)N1CC(CCn2c(=O)ccc3cnc(Nc4ccc(N5CCN(C)CC5)cc4F)nc32)C1 [Example 141] | B (B represents a pC50 value between 6.7 (included) and 7.5 (IC50 between 200 nM and 32 nM))
32 | C=CC(=O)N1CC(CCn2c(=O)ccc3cnc(Nc4ccc(N5CCC(C)CC5)cc4)nc32)C1 [Example 142] | B (B represents a pC50 value between 6.7 (included) and 7.5 (IC50 between 200 nM and 32 nM))
33 | C=CC(=O)N1CC(CCn2c(=O)ccc3cnc(Nc4ccc(N5CCCCC5)cc4)nc32)C1 [Example 143] | B (B represents a pC50 value between 6.7 (included) and 7.5 (IC50 between 200 nM and 32 nM))
34 | C=CC(=O)N1CCN(CCn2c(=O)ccc3cnc(Nc4ccc(N5CCN(C(=O)OC)CC5)cc4)nc32)CC1 [Example 145] | B (B represents a pC50 value between 6.7 (included) and 7.5 (IC50 between 200 nM and 32 nM))
35 | C=CC(=O)N1CC(CCn2c(=O)ccc3cnc(Nc4ccc(N5CCN(C(=O)CS(C)(=O)=O)CC5)cc4)nc32)C1 [Example 151] | C (C represents a pIC50 value between 6 and 6.7 (IC50 between 1 μM and 200 nM))
36 | C=CC(=O)N1CC(CCn2c(=O)ccc3cnc(Nc4ccc(N5CCC(F)(F)CC5)cc4)nc32)C1 [Example 157] | B (B represents a pC50 value between 6.7 (included) and 7.5 (IC50 between 200 nM and 32 nM))

The molecules below were run on Caco-2 cell monolayers (assay: Caco-2 permeation assay). Details: 5 μM, A-B direction, with Verapamil (25 μM).
Assay type: in vitro ADME
How it was run: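 Compounds tested at 5 μM in duplicate across Caco-2 monolayers, apical-to-basolateral, with 25 μM verapamil to block P-gp, at 37° C., 5% CO2. Apical and basal samples taken at 0 and 120 min, analysed by LC-MS/MS; Papp (cm/sec) calculated as dQ/(dt×Area×concentration).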

Row | SMILES | Caco Kp
37 | C=CC(=O)N1CC(CCn2c(=O)ccc3cnc(Nc4ccc(N5CCN(C)CC5)cc4F)nc32)C1 [Example 141] | C (C represents a value between 10×10^−6 and 30×10^−6 cm/sec)
38 | C=CC(=O)N1CC(CCn2c(=O)ccc3cnc(Nc4ccc(N5CCC(C)CC5)cc4)nc32)C1 [Example 142] | C (C represents a value between 10×10^−6 and 30×10^−6 cm/sec)
39 | C=CC(=O)N1CC(CCn2c(=O)ccc3cnc(Nc4ccc(N5CCCCC5)cc4)nc32)C1 [Example 143] | C (C represents a value between 10×10^−6 and 30×10^−6 cm/sec)
40 | C=CC(=O)N1CCN(CCn2c(=O)ccc3cnc(Nc4ccc(N5CCN(C(=O)OC)CC5)cc4)nc32)CC1 [Example 145] | B (B represents a value between 5×10^−6 and 10×10^−6 cm/sec)
41 | C=CC(=O)N1CC(CCn2c(=O)ccc3cnc(Nc4ccc(N5CCN(C(=O)CS(C)(=O)=O)CC5)cc4)nc32)C1 [Example 151] | A (A represents a value below 5×10^−6 cm/sec)
42 | C=CC(=O)N1CC(CCn2c(=O)ccc3cnc(Nc4ccc(N5CCC(F)(F)CC5)cc4)nc32)C1 [Example 157] | C (C represents a value between 10×10^−6 and 30×10^−6 cm/sec)

Source: US11697648B2, “Fused pyrimidine pyridinone compounds as JAK inhibitors” (THERAVANCE BIOPHARMA R&D IP, LLC, priority 2019, dated 2023)
